Test: Release of pesticide from 3-D printed binary solid objects in a stirred dissolution basket
Assay type: physicochemical
Settings: for Percentage Release, Water - after 720 min.: from binary solid object T7 (T3 + T4, no surfactant); for Percentage Release, Water - after 720 min. / Percentage Release, Water - after 30 min.: into water; for Percentage Release, S1 - after 30 min. / Percentage Release, S2 - after 30 min.: from binary solid object T7; for Percentage Release, S1 - after 30 min.: into S1 = water with 0.5% w/w Agnique FOH 90C-20; for Percentage Release, S2 - after 30 min.: into S2 = water with 0.5% w/w Agnique FOH 90C-20 and 1% Tween 80
Description: This Example illustrates a binary (two-sectioned) extruded solid object displaying both slow and fast release. The release of pesticide from the 3-D printed binary solid object T7 of Example 2 (containing T3 and T4) was measured. In each experiment three T7 solid objects were added to a dissolution basket which was stirred at 30 rpm. Release was measured into water; into water containing a commercially available surfactant (S1); and into water with two different types of commercially available surfactant (S2). […] Binary solid object T7 released 64% of the pesticide in 720 minutes. The release of the fungicide azoxystrobin in the same time period was only 27%; this was slow release. Release rates into the two surfactant containing media were faster for both pesticides. S1 contained water with 0.5% w/w of Agnique®FOH 90C-20 whereas S2 contained water with 0.5% w/w Agnique®FOH 90C-20 and 1% Tween® 80. Tween® 80 is a non-ionic surfactant: polyoxyethylene (20) sorbitan monooleate.
This Example illustrates the effect of a surfactant of the release profile of a binary (two-sectioned) extruded solid object. Similarly to Example 3, the releases of pesticides from the 3-D printed binary solid object T8 of Example 2 (containing T5 and T6) were measured; three solid objects T8 were added to a dissolution basket which was stirred at 30 rpm. […] Furthermore, compared to solid object T7 releasing fomesafen into water which already contains a high concentration of the same surfactant (S1 of Example 2), the release from T8 (the formulation with built-in surfactant) was considerably faster (78% versus 39.3% [S1]). […] Similar to the case for fomesafen we also see that the T8 azoxystrobin section (with built-in surfactant) released considerably more of the azoxystrobin than the T7 (surfactant free) solid object releasing into a surfactant solution (37% versus 28.9%).

[1] = from binary solid object T7 (sections T3 + T4, no surfactant), three objects, basket stirred at 30 rpm, 30 min
[2] = from binary solid object T7 into water, 720 min
[3] = from binary solid object T8 (fomesafen section T5, azoxystrobin section T6, both with built-in alkyl ethoxylate surfactant), 30 rpm, 30 min

SMILES	Percentage Release, Water - after 720 min. (30 rpm, 720 min)	Percentage Release, Water - after 30 min. [1]	Percentage Release, S1 - after 30 min. (30 rpm, 30 min)	Percentage Release, S2 - after 30 min. (30 rpm, 30 min)	Release profile (in words) [2]	Percentage Release, Water - after 30 min. [3]	Increase of release rate from T8 compared to T7 (factor, water, 30 min, T8 (with surfactant) versus T7 (no surfactant))	Release profile (in words) (from binary solid object T8 into water, 30 min)
CO/C=C(/C(=O)OC)c1ccccc1Oc1cc(Oc2ccccc2C#N)ncn1 [Azoxystrobin]	27%	15.6%	28.9%	48.3%	slow release	37%	–	–
CS(=O)(=O)NC(=O)c1cc(Oc2ccc(C(F)(F)F)cc2Cl)ccc1[N+](=O)[O-] [Fomesafen]	64%	23.6%	39.3%	45.9%	fast release	78%	three	fast release

From patent publication US20210045381A1, “FORMULATIONS” (priority 2018, published 2021)
